Experimental data published in US9573911B2, “Diphosphate mimetics and uses thereof” (President and Fellows of Harvard College, priority 2011, dated 2017).

Legend:
Assay in all cases: Kinase profiling, Invitrogen Z'-LYTE
Format in all cases: biochemical
Settings in all cases: Table 2
[1] = biological target: T1, AURKA (Aurora A) (Homo sapiens, UniProt O14965)
T1 construct: purchased Invitrogen
T1 sequence (O14965 1-403): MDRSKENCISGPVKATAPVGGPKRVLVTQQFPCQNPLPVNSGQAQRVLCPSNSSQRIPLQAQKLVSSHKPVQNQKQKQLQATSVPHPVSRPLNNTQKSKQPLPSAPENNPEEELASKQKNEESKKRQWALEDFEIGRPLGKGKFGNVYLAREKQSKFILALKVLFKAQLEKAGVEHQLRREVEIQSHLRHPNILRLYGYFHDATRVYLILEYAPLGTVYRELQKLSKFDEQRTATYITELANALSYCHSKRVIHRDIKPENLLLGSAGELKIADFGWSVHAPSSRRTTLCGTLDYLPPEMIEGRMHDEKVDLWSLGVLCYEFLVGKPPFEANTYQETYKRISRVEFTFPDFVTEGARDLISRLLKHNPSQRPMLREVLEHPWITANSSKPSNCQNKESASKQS
Experimental: (§1) Kinase profiling was conducted using Invitrogen Z'-LYTE screening protocol and assay conditions found at www.invitrogen.com. Compound (2) inhibited PLK1 completely at 5 μM.

[2] = biological target: T2, CDK5/p25 (Homo sapiens, UniProt Q00535)
T2 construct: purchased Invitrogen
Experimental: as §1

[3] = biological target: T3, EPHA1 (Homo sapiens, UniProt P21709)
T3 construct: purchased Invitrogen
T3 sequence (P21709 26-976): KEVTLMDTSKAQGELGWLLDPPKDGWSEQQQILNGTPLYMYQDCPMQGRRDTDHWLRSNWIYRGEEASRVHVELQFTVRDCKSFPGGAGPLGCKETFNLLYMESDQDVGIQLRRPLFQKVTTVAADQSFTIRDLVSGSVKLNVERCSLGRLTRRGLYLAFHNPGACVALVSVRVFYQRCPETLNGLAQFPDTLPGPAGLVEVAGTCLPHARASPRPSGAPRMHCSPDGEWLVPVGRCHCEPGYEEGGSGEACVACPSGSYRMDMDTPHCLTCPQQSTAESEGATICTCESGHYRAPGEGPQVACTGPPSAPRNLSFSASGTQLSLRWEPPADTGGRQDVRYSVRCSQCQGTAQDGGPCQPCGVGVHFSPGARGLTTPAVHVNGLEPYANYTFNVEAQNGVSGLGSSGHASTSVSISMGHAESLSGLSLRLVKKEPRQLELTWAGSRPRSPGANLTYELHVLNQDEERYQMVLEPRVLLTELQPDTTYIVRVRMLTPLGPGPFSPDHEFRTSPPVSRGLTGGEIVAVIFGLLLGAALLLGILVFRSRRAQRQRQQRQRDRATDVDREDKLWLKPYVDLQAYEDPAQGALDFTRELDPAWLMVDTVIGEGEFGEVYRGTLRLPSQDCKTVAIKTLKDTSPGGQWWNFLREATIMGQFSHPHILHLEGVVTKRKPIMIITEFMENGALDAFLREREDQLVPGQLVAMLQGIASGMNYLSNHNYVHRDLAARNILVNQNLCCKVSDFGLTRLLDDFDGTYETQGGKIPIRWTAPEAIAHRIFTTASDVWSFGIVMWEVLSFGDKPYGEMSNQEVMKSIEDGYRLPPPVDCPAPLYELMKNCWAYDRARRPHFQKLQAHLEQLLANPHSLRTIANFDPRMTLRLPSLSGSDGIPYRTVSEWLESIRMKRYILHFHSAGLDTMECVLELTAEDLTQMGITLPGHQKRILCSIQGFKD
Experimental: as §1

[4] = biological target: T4, MET M1250T (Homo sapiens, UniProt P08581, M1250T)
T4 construct: purchased Invitrogen
Experimental: as §1

[5] = biological target: T5, NEK6 (Homo sapiens, UniProt Q9HC98)
T5 construct: purchased Invitrogen
Experimental: as §1

[6] = biological target: T6, PHKG2 (Homo sapiens, UniProt P15735)
T6 construct: purchased Invitrogen
T6 sequence (P15735 1-406): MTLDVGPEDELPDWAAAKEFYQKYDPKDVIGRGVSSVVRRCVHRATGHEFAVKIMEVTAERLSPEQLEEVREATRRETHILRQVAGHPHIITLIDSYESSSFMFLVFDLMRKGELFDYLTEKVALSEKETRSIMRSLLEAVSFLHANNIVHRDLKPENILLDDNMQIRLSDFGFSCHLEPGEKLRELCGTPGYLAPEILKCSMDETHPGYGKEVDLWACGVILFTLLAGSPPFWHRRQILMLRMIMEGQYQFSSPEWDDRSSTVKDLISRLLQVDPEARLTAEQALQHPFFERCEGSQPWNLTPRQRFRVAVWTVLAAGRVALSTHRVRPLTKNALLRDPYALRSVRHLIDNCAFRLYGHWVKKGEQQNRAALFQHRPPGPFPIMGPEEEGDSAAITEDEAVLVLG
Experimental: as §1

[7] = biological target: T7, SGKL (SGK3) (Homo sapiens, UniProt Q96BR1)
T7 construct: purchased Invitrogen
T7 sequence (Q96BR1 1-496): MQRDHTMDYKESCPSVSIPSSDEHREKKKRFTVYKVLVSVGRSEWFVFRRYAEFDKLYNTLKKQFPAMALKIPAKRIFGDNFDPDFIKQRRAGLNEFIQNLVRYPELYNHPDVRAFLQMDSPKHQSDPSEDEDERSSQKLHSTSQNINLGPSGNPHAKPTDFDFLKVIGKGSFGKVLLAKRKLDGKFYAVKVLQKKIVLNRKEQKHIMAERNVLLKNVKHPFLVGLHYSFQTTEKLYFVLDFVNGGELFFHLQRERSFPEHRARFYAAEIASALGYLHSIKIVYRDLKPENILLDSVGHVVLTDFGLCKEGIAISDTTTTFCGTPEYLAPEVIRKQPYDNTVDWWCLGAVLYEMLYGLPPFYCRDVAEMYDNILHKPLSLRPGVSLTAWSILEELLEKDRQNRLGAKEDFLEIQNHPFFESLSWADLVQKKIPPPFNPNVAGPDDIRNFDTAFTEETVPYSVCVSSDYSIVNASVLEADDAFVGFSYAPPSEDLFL
Experimental: as §1

T5 sequence (Q9HC98 whole entry): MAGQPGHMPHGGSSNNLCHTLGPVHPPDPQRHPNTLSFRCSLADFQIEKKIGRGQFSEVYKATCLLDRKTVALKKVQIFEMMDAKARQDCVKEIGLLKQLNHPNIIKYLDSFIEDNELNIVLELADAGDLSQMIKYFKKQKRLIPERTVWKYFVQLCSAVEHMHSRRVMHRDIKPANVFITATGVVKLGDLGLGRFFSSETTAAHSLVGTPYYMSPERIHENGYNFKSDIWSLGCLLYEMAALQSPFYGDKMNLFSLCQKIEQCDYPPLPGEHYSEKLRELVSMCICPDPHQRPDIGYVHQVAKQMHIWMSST
T2 sequence (Q00535 whole entry): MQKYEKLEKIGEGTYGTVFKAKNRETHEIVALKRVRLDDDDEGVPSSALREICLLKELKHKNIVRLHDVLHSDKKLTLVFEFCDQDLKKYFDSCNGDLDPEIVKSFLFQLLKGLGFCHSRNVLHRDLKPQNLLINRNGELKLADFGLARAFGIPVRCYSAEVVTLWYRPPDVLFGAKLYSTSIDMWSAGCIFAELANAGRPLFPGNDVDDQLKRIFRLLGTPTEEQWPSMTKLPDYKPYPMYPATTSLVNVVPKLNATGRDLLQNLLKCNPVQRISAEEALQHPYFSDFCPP
T2 sequence (Q15078 99-307 partner limits assumed): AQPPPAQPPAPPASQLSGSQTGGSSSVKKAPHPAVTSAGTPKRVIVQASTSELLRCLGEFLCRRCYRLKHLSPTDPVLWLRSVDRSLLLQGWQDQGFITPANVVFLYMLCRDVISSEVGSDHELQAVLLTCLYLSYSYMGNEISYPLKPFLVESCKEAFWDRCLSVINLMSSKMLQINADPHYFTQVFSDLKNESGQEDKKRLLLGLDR
T4 sequence (P08581 25-1390 M1250T): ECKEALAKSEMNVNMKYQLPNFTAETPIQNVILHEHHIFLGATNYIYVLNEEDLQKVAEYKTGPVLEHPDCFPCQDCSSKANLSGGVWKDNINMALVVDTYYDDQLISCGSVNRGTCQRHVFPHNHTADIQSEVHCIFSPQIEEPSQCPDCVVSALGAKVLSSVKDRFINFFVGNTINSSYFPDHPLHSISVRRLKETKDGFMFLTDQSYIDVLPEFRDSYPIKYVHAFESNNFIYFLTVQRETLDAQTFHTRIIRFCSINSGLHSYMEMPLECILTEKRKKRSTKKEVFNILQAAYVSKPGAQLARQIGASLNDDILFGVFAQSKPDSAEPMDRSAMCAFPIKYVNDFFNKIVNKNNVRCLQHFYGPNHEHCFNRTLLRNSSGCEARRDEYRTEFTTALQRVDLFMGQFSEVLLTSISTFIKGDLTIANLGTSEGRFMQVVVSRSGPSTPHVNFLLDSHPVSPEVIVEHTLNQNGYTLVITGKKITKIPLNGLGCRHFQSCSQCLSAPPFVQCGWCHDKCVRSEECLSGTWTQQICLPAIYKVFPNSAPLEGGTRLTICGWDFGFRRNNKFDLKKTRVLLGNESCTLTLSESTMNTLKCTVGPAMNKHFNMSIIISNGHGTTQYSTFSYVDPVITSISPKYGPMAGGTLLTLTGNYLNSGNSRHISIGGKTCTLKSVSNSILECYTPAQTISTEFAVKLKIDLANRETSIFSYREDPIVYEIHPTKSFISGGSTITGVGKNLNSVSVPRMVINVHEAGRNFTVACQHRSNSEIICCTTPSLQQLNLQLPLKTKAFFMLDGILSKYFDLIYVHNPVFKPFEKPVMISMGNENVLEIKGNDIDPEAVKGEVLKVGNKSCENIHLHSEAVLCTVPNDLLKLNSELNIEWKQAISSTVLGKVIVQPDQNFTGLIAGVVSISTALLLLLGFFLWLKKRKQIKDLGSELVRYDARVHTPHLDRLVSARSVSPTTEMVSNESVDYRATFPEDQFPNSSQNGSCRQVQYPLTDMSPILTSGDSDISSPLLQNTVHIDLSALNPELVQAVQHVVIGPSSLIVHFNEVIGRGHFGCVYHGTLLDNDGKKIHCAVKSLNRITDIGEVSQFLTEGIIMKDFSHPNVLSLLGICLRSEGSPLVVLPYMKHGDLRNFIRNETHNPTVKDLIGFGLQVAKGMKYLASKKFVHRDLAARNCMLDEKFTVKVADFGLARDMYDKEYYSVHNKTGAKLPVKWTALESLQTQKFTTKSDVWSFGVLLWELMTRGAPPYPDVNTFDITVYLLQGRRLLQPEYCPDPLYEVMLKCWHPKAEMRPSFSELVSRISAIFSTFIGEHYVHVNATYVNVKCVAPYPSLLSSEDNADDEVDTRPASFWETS

COc1ccc(OC(=O)n2c(=O)oc3cc(C(C)=O)ccc32)cc1 [Compound 2]
% Inhibition Point 1 [1]: −146% | % Inhibition Point 2 [1]: −146% | % Inhibition mean [1]: −146% | % Inhibition Point 1 [2]: −322% | % Inhibition Point 2 [2]: −286% | % Inhibition mean [2]: −304% | % Inhibition Point 1 [3]: −62% | % Inhibition Point 2 [3]: −107% | % Inhibition mean [3]: −85% | % Inhibition Point 1 [4]: −113% | % Inhibition Point 2 [4]: −143% | % Inhibition mean [4]: −128% | % Inhibition Point 1 [5]: −490% | % Inhibition Point 2 [5]: −457% | % Inhibition mean [5]: −474% | % Inhibition Point 1 [6]: −360% | % Inhibition Point 2 [6]: −308% | % Inhibition mean [6]: −334% | % Inhibition Point 1 [7]: −140% | % Inhibition Point 2 [7]: −150% | % Inhibition mean [7]: −145%
